According to publication PMC7483518, “Destabilizing single chain major histocompatibility complex class I protein for repurposed enterokinase proteolysis” (Scientific Reports, 2020):
Values joined by “and” are separate entries in the source; they are usually repeats but may differ in a detail not shown here. Equal values may be shown once. Read-outs that look alike come from different tables or passages of the source.

Columns and labels:
[1] = system: HLA-A*11:01 single chain protein; format: biochemical, Human; parameters: EZ50kDa / EZ50kD (pH 6.2) / EZ50kD (pH 8) / EZ50kD (normalised: EBV1101 = 1, EBV0201 = 0) / EZ50kDa rank: unit not given beside the values; conditions: for EZ50kDa: Table 3, EGFR peptide library (n = 177, duplicated), 14 h;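 on EZ50kD (pH 6.2): scaled with positive control peptide as 1 and negative control peptide as 0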;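 on EZ50kDa: intact 50 kDa band volume scaled with positive control peptide as 1 and negative as 0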
[2] = target: photolabile unchained HLA-A*11:01 pMHC-I protein (Homo sapiens, UniProt P04439, A114D/D185E/E176A/F33Y/L180Q/S129P/T187R); test: ELISA with photolabile unchained pMHC-I protein and UV irradiation; format: binding; conditions: for ELISA450nm: Table 2, 62.5 nM photolabile pMHC-I mixture, 5 μM peptide in PBS, UV 365 nm 2 × 5 min on ice, 2 h room temperature on anti-β2m plate, Abs450nm − Abs570nm, instability cutoff < 0.6
[3] = Table 2, pH 6.2, 37 °C, enterokinase, Eq. (4), instability cutoff < 0.3
[4] = EASY MHC-I A*11:01, run 2019-08-08, 5min, mean of 2 replicates
[5] = EASY MHC-I A*11:01, gel 2019-07-24 lr1046_ex1004 5min, replicate 1 (lanes 1-14)
[6] = EASY MHC-I A*11:01, gel 2019-07-24 lr1046_ex1004 5min, replicate 2 (lanes 15-28)
[7] = EASY MHC-I A*11:01, 2019-07-25, mean of the 2 replicates
[8] = EASY MHC-I A*11:01, gel 2019-07-17 lr1028-1036 5min, mean of 2 replicates
[9] = EASY MHC-I A*11:01, gel 2019-07-17 lr1028-1036 5min, replicate 1 (lanes 1-14)
[10] = EASY MHC-I A*11:01, gel 2019-07-17 lr1028-1036 5min, replicate 2 (lanes 15-28)
[11] = EASY MHC-I A*11:01, gel 2019-07-23 lr1037_1045_5min, replicate 1 (first lane set)
[12] = EASY MHC-I A*11:01, gel 2019-07-23 lr1037_1045_5min, replicate 2 (second lane set)
[13] = pH 6.2, 37 °C, enterokinase, Eq. (4)

Sequence: SSCSSCPLSK [reference compound]
- EZ50kD (pH 6.2) [1, 3]: 0.6649
- EZ50kD (pH 6.2) ([1]; pH 6.2): 0.9576
- EZ50kD (pH 8) ([1]; pH 8): 0.8409
- ELISA450nm [2]: 1.272

Sequence: LTSTVQLIMQL [TM1030]
- EZ_mean [1]: -0.07795
- EASY_mean ([2]; […], mean, STDEV): -0.03337

Sequence: NTLEQTVKK [reference compound]
- EZ50kD (pH 6.2) [1, 3]: 0.5647
- ELISA450nm [2]: 1.631

Sequence: LTSTVQLIMQ [TM1019]
- EZ_mean [1, 4]: -0.0385
- Norm_mean [1, 4]: -0.02611
- EASY_mean ([2]; […], mean, STDEV): -0.02206

Sequence: GRAKLLGA [LR1007]
- EZ_mean [1]: -0.06438
- EASY_mean ([2]; ELISA signal, mean, […]): -0.02108

Sequence: AIKTSPKANKE [EX1019]
- EZ_mean ([1]; EASY MHC-I A*11:01, 2019-07-26, mean of the 2 replicates): -0.09791
- EASY_mean ([2]; […], mean, STDEV): 0.001081

Sequence: TVQLIMQL [TM1003]
- EZ_mean ([1]; EASY MHC-I A*11:01, run 2019-08-06, 5min, mean of 2 replicates): -0.09825
- EASY_mean ([2]; […], mean, STDEV): -0.03257

Sequence: TVQLIMQLMP [TM1022]
- EZ_mean [1, 4]: -0.0531
- Norm_mean [1, 4]: -0.04425
- EASY_mean ([2]; ELISA signal, mean, […]): -0.01505

Sequence: TVQLIMQLMPFG [TM1044]
- EZ_mean [1]: -0.09806
- EASY_mean ([2]; ELISA signal, mean, […]): -0.03569

Sequence: TSTVQLIMQLM [TM1031]
- EZ_mean [1]: -0.09739
- EASY_mean ([2]; […], mean, STDEV): -0.04936

Sequence: FGRAKLLGAE [LR1025]
- EZ_mean [1]: -0.04476
- EASY_mean ([2]; ELISA signal, mean, […]): -0.01153

Sequence: TSPKANKE [EX1004]
- EZ_mean [1]: -0.03458
- EASY_mean [2]: -0.008845

Sequence: TDFGRAKLLGAE [LR1046]
- EZ_mean ([1]; EASY MHC-I A*11:01, gel 2019-07-24 lr1046_ex1004 5min, mean of 2 replicates): -0.05291
- EZ50kD (normalised: EBV1101 = 1, EBV0201 = 0) [1, 5]: -0.04519
- Norm (50 kDa band adj. volume normalised: Undig_37C = 1, Dig_37C = 0) [1, 5]: -0.03888
- EZ50kD (normalised: EBV1101 = 1, EBV0201 = 0) [1, 6]: -0.06064
- Norm (50 kDa band adj. volume normalised: Undig_37C = 1, Dig_37C = 0) [1, 6]: 0.001098
- EASY_mean [2]: -0.01889

Sequence: PVAIKTSPKA [EX1010]
- EZ_mean [1, 7]: -0.04257
- EASY_mean ([2]; […], mean, STDEV): -0.007707

Sequence: DFGRAKLLGAE [LR1035]
- EZ_mean [1, 8]: -0.0623
- EZ50kD (normalised: EBV1101 = 1, EBV0201 = 0) [1, 9]: -0.08387
- Norm (50 kDa band adj. volume normalised: Undig_37C = 1, Dig_37C = 0) [1, 9]: -0.0751
- EZ50kD (normalised: EBV1101 = 1, EBV0201 = 0) [1, 10]: -0.04073
- Norm (50 kDa band adj. volume normalised: Undig_37C = 1, Dig_37C = 0) [1, 10]: -0.03413
- EASY_mean [2]: -0.05461

Sequence: GRAKLLGAEEK [LR1037]
- EZ_mean ([1]; EASY MHC-I A*11:01, gel 2019-07-23 lr1037_1045_5min, mean of 2 replicates): -0.05993
- EZ50kD (normalised: EBV1101 = 1, EBV0201 = 0) [1, 11]: -0.04549
- Norm (50 kDa band adj. volume normalised: Undig_37C = 1, Dig_37C = 0) [1, 11]: -0.01318
- EZ50kD (normalised: EBV1101 = 1, EBV0201 = 0) [1, 12]: -0.07437
- Norm (50 kDa band adj. volume normalised: Undig_37C = 1, Dig_37C = 0) [1, 12]: 0.01353
- EASY_mean [2]: 0.0001747

Sequence: RAKLLGAEEKEY [LR1050]
- EZ_mean [1]: 0.007797
- EASY_mean [2]: 0.01434

Sequence: QLIMQLMPFGCL [TM1047]
- EZ_mean [1]: -0.1111
- EASY_mean [2]: -0.05287

Sequence: IKTSPKANKE [EX1013]
- EZ_mean [1, 7]: -0.04249
- EASY_mean ([2]; […], mean, STDEV): -0.007577

Sequence: CLTSTVQLIMQL [TM1040]
- EZ_mean [1]: -0.1197
- EASY_mean ([2]; ELISA signal, mean, […]): -0.0545

Sequence: IKTSPKAN [EX1002]
- EZ_mean [1]: -0.02894
- EASY_mean [2]: -0.005748

Sequence: GRAKLLGAEEKE [LR1049]
- EZ_mean [1]: -0.05058
- EASY_mean [2]: -0.01715

Sequence: DFGRAKLL [LR1005]
- EZ_mean [1]: -0.05649
- EASY_mean ([2]; ELISA signal, mean, […]): -0.01718

Sequence: LITQLMPFGSL [CS1029]
- EZ_mean [1]: -0.07478
- EASY_mean [2]: -0.02804

Sequence: QLITQLMPFGS [CS1028]
- EZ_mean [1]: -0.07904
- EASY_mean [2]: -0.02964

Sequence: TSTVQLIMQL [TM1020]
- EZ_mean [1, 4]: -0.0424
- Norm_mean [1, 4]: -0.03086
- EASY_mean ([2]; […], mean, STDEV): -0.02933

Sequence: LITQLMPFGS [CS1018]
- EZ_mean [1]: -0.05783
- EASY_mean [2]: 0.007236

Sequence: AIKTSPKANKEI [EX1027]
- EZ_mean ([1]; EASY MHC-I A*11:01, 2019-08-01, mean of the 2 replicates): -0.13
- EASY_mean [2]: -0.02114

Sequence: KITDFGRAKLLG [LR1044]
- EZ50kD (normalised: EBV1101 = 1, EBV0201 = 0) [1]: 0.1471 and 0.1891
- EZ_mean [1]: 0.1681
- Norm (50 kDa band adj. volume normalised: Undig_37C = 1, Dig_37C = 0) [1]: 0.1017 and 0.1364
- EZ50kDa [1, 13]: 0.2 and 0.168 ± 0.030
- EASY_mean [2]: 0.1191

Sequence: KITDFGRAKLL [LR1032]
- EZ_mean [1, 8]: 0.03523
- EZ50kD (normalised: EBV1101 = 1, EBV0201 = 0) [1, 9]: 0.01844
- Norm (50 kDa band adj. volume normalised: Undig_37C = 1, Dig_37C = 0) [1, 9]: -0.01259
- EZ50kD (normalised: EBV1101 = 1, EBV0201 = 0) [1, 10]: 0.05201
- Norm (50 kDa band adj. volume normalised: Undig_37C = 1, Dig_37C = 0) [1, 10]: 0.03105
- EZ50kDa [1, 13]: 0.0352 ± 0.024
- EASY_mean [2]: 0.009234
